Source: patent US11725036B2, “Modified lipidated relaxin B chain peptides and their therapeutic use” (Sanofi, priority 2018, dated 2023)
Values after ≈ are worked out from the molar mass of the structure shown. Read-outs that look alike come from different tables or passages of the source. Starred links: 1 amine or outer side, 2 acyl side, 3 side chain; linkers in the order of their positions; H or OH if unused. Non-standard residues stand in square brackets, D forms with d. Residues, ends and D or L forms follow the SMILES beside them. Groups on a side chain read outwards from the residue. *: point of attachment. X1 = CCCCCCCCCCCCCCCC(=O)N[C@@H](CCC(=O)N[C@@H](CCC(=O)N[C@@H](CCC(=O)NCCCOCCOCCOCCCNC(=O)CCC(=O)NCCCOCCOCCOCCCNC(=O)CCC(=O)NCCCOCCOCCOCCCN*)C(=O)O)C(=O)O)C(=O)O; X2 = CCCCCCCCCCCCCCCC(=O)N[C@@H](CCC(=O)N[C@@H](CCC(=O)N[C@@H](CCC(=O)NCCCOCCOCCOCCCNC(=O)CCC(=O)NCCCOCCOCCOCCCN*)C(=O)O)C(=O)O)C(=O)O; γGlu = O=C(O)[C@H](CCC(=O)[*:2])N[*:1]; Palmitoyl = CCCCCCCCCCCCCCCC(=O)*; Suc = O=C(CCC(=O)[*:2])[*:1]; αMeK = C[C@](N)(CCCCN)C(=O)O; AEEA = NCCOCCOCC(=O)O; Aib = CC(C)(N)C(=O)O

Key:
[1] = Solubility testing in buffer; format: physicochemical; details: target solubility 10.0 mg/ml
Protocol: Prior to the testing of solubility of a peptide batch, its purity (HPLC-UV) was determined.
Acetate Buffer 50 mM pH4.5: 0.75 g C2H3C02Na,3H2O (Sigma S7545)+0.35 ml CH3CO2H 100% solution dissolved in Millipore water, adjusted to pH with diluted (1:1) CH3CO2H and diluted to 250 ml with Millipore water.
In a 4 ml Ependorph vial, an accurately weighed sample of compound was diluted in study media to obtain target concentration of 2, 6 or 10 mg/ml of pure compound. The sample vials were shacked (rock 'roll shaker) for ˜19 h. 300 μL aliquots were filtered through a Millipore “Solvinert” plate (0.45 μm-PTFE hydrophilic).
pH was measured with a micro electrode
Waters Acquity UPLC System with DAD detector
Column: Waters Peptide Column CSH C18 (130 Å; 1.7 μm; 50*2.1 mm)
Column temperature: 60° C.
Full loop (about 5 μL)—overfill factor 5
Weak et Strong wash: H2O/ACN (75/25; V/V); Seal wash: H2O/IsOH (95/5; V/V). Mobile phase:
Solvent A: 0.05% TFA in H2O; Solvent B: 0.035% TFA in CH3CN
Gradient: from 0 to 12 min B=2% to 60%, from 12 to 14 min B=60% to 100%. Column washing 100% B 1 min, column equilibration 2% B 2.5 min.
UV detector: wavelength: 220 nm.

RXFP1 = biological target: T1, RXFP1 (Homo sapiens, UniProt Q9HBX9); assay: OVCAR5 cAMP assay (HTRF); format: cell-based; details: for EC50: OVCAR 5 cells expressing endogenous RXFP1, cAMP readout; for Emax: OVCAR 5 cells, maximal cAMP relative to H2-relaxin
T1 construct: OVCAR5 cells expressing endogenous RXFP1; endogenous in cells; host or cells: OVCAR5
T1 sequence (Q9HBX9 1-757): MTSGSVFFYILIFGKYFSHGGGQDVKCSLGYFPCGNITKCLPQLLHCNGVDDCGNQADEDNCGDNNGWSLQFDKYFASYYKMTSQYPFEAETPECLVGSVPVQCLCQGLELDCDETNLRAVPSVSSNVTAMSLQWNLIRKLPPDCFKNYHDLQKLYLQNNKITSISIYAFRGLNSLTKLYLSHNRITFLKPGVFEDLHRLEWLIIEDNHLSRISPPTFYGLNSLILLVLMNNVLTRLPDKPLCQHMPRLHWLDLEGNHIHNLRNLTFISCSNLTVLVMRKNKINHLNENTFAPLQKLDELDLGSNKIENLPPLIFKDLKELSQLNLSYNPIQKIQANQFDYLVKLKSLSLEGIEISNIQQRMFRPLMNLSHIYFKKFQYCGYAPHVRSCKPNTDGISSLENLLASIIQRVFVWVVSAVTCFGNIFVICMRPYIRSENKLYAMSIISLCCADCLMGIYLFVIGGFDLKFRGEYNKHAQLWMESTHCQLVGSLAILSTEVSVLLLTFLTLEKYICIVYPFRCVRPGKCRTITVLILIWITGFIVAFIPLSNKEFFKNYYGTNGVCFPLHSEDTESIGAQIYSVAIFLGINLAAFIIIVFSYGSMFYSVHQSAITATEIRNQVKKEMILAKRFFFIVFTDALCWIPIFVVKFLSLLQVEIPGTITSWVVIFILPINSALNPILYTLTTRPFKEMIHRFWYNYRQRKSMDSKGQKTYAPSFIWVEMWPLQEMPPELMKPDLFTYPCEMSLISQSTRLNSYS
How it was run: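 Endogenous RXFP1 in OVCAR5 cells, pretreated 40 min at 37° C with 1 mM IBMX, then exposed to increasing peptide concentrations in serum-free medium for 30 min at 37° C. cAMP read by HTRF; EC50 by variable-slope sigmoidal fit, Emax as % of H2-relaxin maximal cAMP in same run.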

[2] = acetate buffer 50 mM pH 4.5, read-out: Solubility Acetate buffer pH 4.5
[3] = phosphate buffer 50 mM pH 7.4, read-out: Solubility phosphate buffer pH 7.4

solubility [1, 2] | solubility [1, 3] | EC50 (RXFP1) | Emax (RXFP1) | SMILES
11.1 mg/mL (≈ 2520 µM) | 10.7 mg/mL (≈ 2440 µM) | 2.2 nM | 97% | CCCCCCCCCCCCCCCC(=O)N[C@@H](CCC(=O)N[C@@H](CCC(=O)N[C@@H](CCC(=O)NCCCOCCOCCOCCCNC(=O)CCC(=O)NCCCOCCOCCOCCCNC(=O)CCC(=O)NCCCOCCOCCOCCCNC(=O)CCC(=O)NCCCC[C@H](NC(=O)CNC(=O)[C@H](CCC(=O)O)NC(=O)C(C)(C)NC(=O)C(C)(C)NC(=O)[C@@H](NC(=O)[C@H](CCCCNC(C)=O)NC(=O)[C@H](C)NC(=O)[C@H](CCCNC(=N)N)NC(=O)[C@@H](NC(=O)[C@H](CCCCN)NC(=O)[C@H](CCC(=O)O)NC(=O)[C@H](CCCNC(=N)N)NC(=O)CNC(=O)[C@H](CCC(=O)O)NC(=O)[C@H](CC(C)C)NC(C)=O)C(C)C)[C@@H](C)CC)C(=O)N[C@@H](CO)C(=O)N[C@H](C(=O)N[C@@H](Cc1c[nH]c2ccccc12)C(=O)N[C@H](CO)C(=O)N[C@@H](CCCCN)C(=O)N[C@@H](CCCNC(=N)N)C(=O)N[C@@H](C)C(=O)N[C@@H](CCCCNC(C)=O)C(N)=O)[C@@H](C)O)C(=O)O)C(=O)O)C(=O)O [compound 44] (Ac-LEGREKVRAK(Ac)I[Aib][Aib]EGK([Suc-X1])STW[dS]KRAK(Ac)-NH2)
0.55 mg/mL (≈ 127 µM) | 6.77 mg/mL (≈ 1560 µM) | 11.1 nM | 92% | CCCCCCCCCCCCCCCC(=O)N[C@@H](CCC(=O)N[C@@H](CCC(=O)N[C@@H](CCC(=O)NCCCOCCOCCOCCCNC(=O)CCC(=O)NCCCOCCOCCOCCCNC(=O)CCC(=O)NCCCOCCOCCOCCCNC(=O)CCC(=O)NCCCC[C@H](NC(=O)CNC(=O)[C@H](CCC(=O)O)NC(=O)C(C)(C)NC(=O)C(C)(C)NC(=O)[C@@H](NC(=O)[C@H](CCCCNC(C)=O)NC(=O)[C@H](C)NC(=O)[C@H](CCCNC(=N)N)NC(=O)[C@@H](NC(=O)[C@H](CC(C)C)NC(=O)[C@H](CCC(=O)O)NC(=O)[C@H](CCCNC(=N)N)NC(=O)CNC(=O)[C@H](CCC(=O)O)NC(=O)[C@H](CC(C)C)NC(C)=O)C(C)C)[C@@H](C)CC)C(=O)N[C@@H](CO)C(=O)N[C@H](C(=O)N[C@@H](Cc1ccccc1)C(=O)N[C@@H](CO)C(=O)N[C@@](C)(CCCCN)C(=O)N[C@@H](CCCNC(=N)N)C(=O)N[C@@H](C)C(=O)N[C@@H](CCCCNC(C)=O)C(N)=O)[C@@H](C)O)C(=O)O)C(=O)O)C(=O)O [compound 23] (Ac-LEGRELVRAK(Ac)I[Aib][Aib]EGK([Suc-X1])STFS[αMeK]RAK(Ac)-NH2)
6.33 mg/mL (≈ 1560 µM) | 6.72 mg/mL (≈ 1660 µM) | 6.8 nM | 88% | CCCCCCCCCCCCCCCC(=O)N[C@@H](CCC(=O)N[C@@H](CCC(=O)N[C@@H](CCC(=O)NCCCOCCOCCOCCCNC(=O)CCC(=O)NCCCOCCOCCOCCCNC(=O)CCC(=O)NCCCC[C@H](NC(=O)CNC(=O)[C@H](CCC(=O)O)NC(=O)C(C)(C)NC(=O)C(C)(C)NC(=O)[C@@H](NC(=O)[C@H](CCCCNC(C)=O)NC(=O)[C@H](C)NC(=O)[C@H](CCCNC(=N)N)NC(=O)[C@@H](NC(=O)[C@H](CCCCN)NC(=O)[C@H](CCC(=O)O)NC(=O)[C@H](CCCNC(=N)N)NC(=O)CNC(=O)[C@H](CCC(=O)O)NC(=O)[C@H](CC(C)C)NC(C)=O)C(C)C)[C@@H](C)CC)C(=O)N[C@@H](CO)C(=O)N[C@H](C(=O)N[C@@H](Cc1ccccc1)C(=O)N[C@@H](CO)C(=O)N[C@H](CCCCN)C(=O)N[C@@H](CCCNC(=N)N)C(=O)N[C@@H](C)C(=O)N[C@@H](CCCCNC(C)=O)C(N)=O)[C@@H](C)O)C(=O)O)C(=O)O)C(=O)O [compound 16] (Ac-LEGREKVRAK(Ac)I[Aib][Aib]EGK([Suc-X2])STFS[dK]RAK(Ac)-NH2)
8.28 mg/mL (≈ 1930 µM) | 8.77 mg/mL (≈ 2040 µM) | 0.36 nM | 95% | CCCCCCCCCCCCCCCC(=O)N[C@@H](CCC(=O)N[C@@H](CCC(=O)N[C@@H](CCC(=O)NCCCOCCOCCOCCCNC(=O)CCC(=O)NCCCOCCOCCOCCCNC(=O)CCC(=O)NCCCOCCOCCOCCCNC(=O)CCC(=O)NCCCC[C@H](NC(=O)CNC(=O)[C@H](CCC(=O)O)NC(=O)C(C)(C)NC(=O)C(C)(C)NC(=O)[C@@H](NC(=O)[C@H](CCCCNC(C)=O)NC(=O)[C@H](C)NC(=O)[C@H](CCCNC(=N)N)NC(=O)[C@@H](NC(=O)[C@H](CCCCN)NC(=O)[C@H](CCC(=O)O)NC(=O)[C@H](CCCNC(=N)N)NC(=O)CNC(=O)[C@H](CCC(=O)O)NC(=O)[C@H](CC(C)C)NC(C)=O)C(C)C)[C@@H](C)CC)C(=O)N[C@@H](CO)C(=O)N[C@H](C(=O)N[C@@H](Cc1c[nH]c2ccccc12)C(=O)N[C@@H](CO)C(=O)NC(C)(C)C(=O)N[C@@H](CCCNC(=N)N)C(=O)N[C@@H](C)C(=O)N[C@@H](CCCCN)C(N)=O)[C@@H](C)O)C(=O)O)C(=O)O)C(=O)O [compound 71] (Ac-LEGREKVRAK(Ac)I[Aib][Aib]EGK([Suc-X1])STWS[Aib]RAK-NH2)
6.24 mg/mL (≈ 1530 µM) | 6.41 mg/mL (≈ 1570 µM) | 9.1 nM | 85% | CCCCCCCCCCCCCCCC(=O)N[C@@H](CCC(=O)N[C@@H](CCC(=O)N[C@@H](CCC(=O)NCCOCCOCC(=O)NCCOCCOCC(=O)NCCOCCOCC(=O)NCCOCCOCC(=O)NCCCC[C@H](NC(=O)CNC(=O)[C@H](CCC(=O)O)NC(=O)C(C)(C)NC(=O)C(C)(C)NC(=O)[C@@H](NC(=O)[C@H](CCCCNC(C)=O)NC(=O)[C@H](C)NC(=O)[C@H](CCCNC(=N)N)NC(=O)[C@@H](NC(=O)[C@H](CCCCN)NC(=O)[C@H](CCC(=O)O)NC(=O)[C@H](CCCNC(=N)N)NC(=O)CNC(=O)[C@H](CCC(=O)O)NC(=O)[C@H](CC(C)C)NC(C)=O)C(C)C)[C@@H](C)CC)C(=O)N[C@@H](CO)C(=O)N[C@H](C(=O)N[C@@H](Cc1c[nH]c2ccccc12)C(=O)N[C@@H](CO)C(=O)NC(C)(C)C(=O)N[C@@H](CCCNC(=N)N)C(=O)N[C@@H](CCCCN)C(=O)N[C@@H](CCCCNC(C)=O)C(N)=O)[C@@H](C)O)C(=O)O)C(=O)O)C(=O)O [compound 5] (Ac-LEGREKVRAK(Ac)I[Aib][Aib]EGK([AEEA-AEEA-AEEA-AEEA-γGlu-γGlu-γGlu-Palmitoyl])STWS[Aib]RKK(Ac)-NH2)
6.58 mg/mL (≈ 1510 µM) | 6.75 mg/mL (≈ 1550 µM) | 28.7 nM | 100% | CCCCCCCCCCCCCCCC(=O)N[C@@H](CCC(=O)N[C@@H](CCC(=O)N[C@@H](CCC(=O)NCCCOCCOCCOCCCNC(=O)CCC(=O)NCCCOCCOCCOCCCNC(=O)CCC(=O)NCCCOCCOCCOCCCNC(=O)CCC(=O)NCCCC[C@H](NC(=O)CNC(=O)[C@H](CCC(=O)O)NC(=O)C(C)(C)NC(=O)C(C)(C)NC(=O)[C@@H](NC(=O)[C@H](CCCCNC(C)=O)NC(=O)[C@H](C)NC(=O)[C@H](CCCNC(=N)N)NC(=O)[C@@H](NC(=O)[C@H](CCC(N)=O)NC(=O)[C@H](CCC(=O)O)NC(=O)[C@H](CCCNC(=N)N)NC(=O)CNC(=O)[C@H](CCC(=O)O)NC(=O)[C@H](CC(C)C)NC(C)=O)C(C)C)[C@@H](C)CC)C(=O)N[C@@H](CO)C(=O)N[C@H](C(=O)N[C@@H](Cc1ccccc1)C(=O)N[C@@H](CO)C(=O)N[C@@](C)(CCCCN)C(=O)N[C@@H](CCCNC(=N)N)C(=O)N[C@@H](C)C(=O)N[C@@H](CCCCNC(C)=O)C(N)=O)[C@@H](C)O)C(=O)O)C(=O)O)C(=O)O [compound 25] (Ac-LEGREQVRAK(Ac)I[Aib][Aib]EGK([Suc-X1])STFS[αMeK]RAK(Ac)-NH2)
